Experimental data as given in US7851474B2, “Dipiperazinyl ketones and related analogues” (Neurogen Corporation, priority 2005, dated 2010).
Like-named read-outs stand apart in the source and are kept apart here.

Molecular target: T1, chimeric human H3 receptor (Homo sapiens, UniProt Q9Y5N1, E19D)
T1 construct: made in house; host or cells: Sf9 insect cells (baculovirus infection); P2 membrane preparation
Assay: Chimeric human H3 receptor screening GTP binding assay (inhibition of histamine-stimulated GTP-gamma35S binding, Example 8)
Format: biochemical
Details: 1 h, read-out: percent inhibition of agonist-induced GTP-gammaS binding to H3
Procedure, shortened: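 Sf9 membranes co-expressing the chimeric receptor and a heterotrimeric G-protein (35 μg protein) in Tris pH 7.4 buffer with 10 μM GDP; compound at 4 μM plus 1 μM histamine, 125 pM GTP-gamma35S, 60 min at room temperature. Filter-bound radioactivity read; non-specific binding defined with 10 uM GTP-gammaS; percent inhibition of histamine signal.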

[1] = "+" in Ki of Table II, assay of Example 8
[2] = Table II, "+" in the column headed Ki, assay of Example 8
[3] = Table II "Ki", symbol "+": assay described in Example 8

T1 sequence (Q9Y5N1 with tags, fused parts or gaps E19D): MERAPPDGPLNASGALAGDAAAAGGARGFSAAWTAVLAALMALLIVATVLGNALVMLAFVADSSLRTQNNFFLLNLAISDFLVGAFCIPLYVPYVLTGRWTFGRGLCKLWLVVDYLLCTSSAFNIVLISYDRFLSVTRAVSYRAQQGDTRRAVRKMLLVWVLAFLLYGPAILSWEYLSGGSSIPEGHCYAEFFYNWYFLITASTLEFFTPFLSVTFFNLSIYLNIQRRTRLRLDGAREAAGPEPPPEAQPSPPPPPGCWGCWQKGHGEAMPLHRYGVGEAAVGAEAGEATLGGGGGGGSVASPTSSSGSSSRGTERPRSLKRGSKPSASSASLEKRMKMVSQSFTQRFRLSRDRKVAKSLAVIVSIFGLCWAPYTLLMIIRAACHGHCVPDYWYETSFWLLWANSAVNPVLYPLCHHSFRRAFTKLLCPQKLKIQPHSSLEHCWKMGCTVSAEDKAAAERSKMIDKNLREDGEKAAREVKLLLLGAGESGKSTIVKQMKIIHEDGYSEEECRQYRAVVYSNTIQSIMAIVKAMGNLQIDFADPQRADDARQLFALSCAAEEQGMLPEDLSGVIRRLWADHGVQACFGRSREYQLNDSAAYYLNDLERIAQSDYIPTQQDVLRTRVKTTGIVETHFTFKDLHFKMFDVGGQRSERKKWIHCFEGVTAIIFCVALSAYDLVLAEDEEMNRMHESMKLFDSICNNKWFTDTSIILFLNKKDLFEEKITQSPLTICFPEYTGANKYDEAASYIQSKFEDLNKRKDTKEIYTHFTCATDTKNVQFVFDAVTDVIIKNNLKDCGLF

SMILES	inhibition at 4 µM [2]	also measured
COc1cccc(OCC(=O)N2CCN(CC(=O)N3CCN(C4CCC4)CC3)CC2)c1 [Compound 551, 1-cyclobutyl-4-({4-[(3-methoxyphenoxy)acetyl]piperazin-1-yl}acetyl)piperazine]	–	inhibition at 4 µM [1]: > 90%
O=C(Cc1cccc(C(F)(F)F)c1)N1CCN(CC(=O)N2CCN(C3CCC3)CC2)CC1 [Compound 627, 1-cyclobutyl-4-[(4-{[3-(trifluoromethyl)phenyl]acetyl}piperazin-1-yl)acetyl]piperazine]	> 90%	–
O=C(Cc1cccc(C(F)(F)F)c1F)N1CCN(CC(=O)N2CCN(C3CCC3)CC2)CC1 [Compound 623, 1-cyclobutyl-4-[(4-{[2-fluoro-3-(trifluoromethyl)phenyl]acetyl}piperazin-1-yl)acetyl]piperazine]	> 90%	–
O=C(CN1CCN(C(=O)C2COc3ccccc3O2)CC1)N1CCN(C2CCC2)CC1 (centres unmarked) [Compound 668, 1-cyclobutyl-4-{[4-(2,3-dihydro-1,4-benzodioxin-2-ylcarbonyl)piperazin-1-yl]acetyl}piperazine]	> 90%	–
Cc1ccc(N)c(C(=O)N2CCN(CC(=O)N3CCN(C4CCC4)CC3)CC2)c1 [Compound 893, 2-({4-[2-(4-cyclobutylpiperazin-1-yl)-2-oxoethyl]piperazin-1-yl}carbonyl)-4-methylaniline]	–	inhibition at 4 µM [3]: > 90%
O=C(/C=C/c1ccc(OCc2ccc(F)cc2)cc1)N1CCN(CC(=O)N2CCN(C3CCC3)CC2)CC1 [Compound 531, 1-cyclobutyl-4-({4-[(2E)-3-{4-[(4-fluorobenzyl)oxy]phenyl}prop-2-enoyl]piperazin-1-yl}acetyl)piperazine]	–	inhibition at 4 µM [1]: > 90%
O=C(CN1CCN(C(=O)c2cccnc2Sc2ccccc2)CC1)N1CCN(C2CCC2)CC1 [Compound 620, 1-cyclobutyl-4-[(4-{[2-(phenylthio)pyridin-3-yl]carbonyl}piperazin-1-yl)acetyl]piperazine]	> 90%	–
CCCn1c(C(=O)N2CCN(CC(=O)N3CCN(C4CCC4)CC3)CC2)cc2ccccc21 [Compound 889, 2-({4-[2-(4-cyclobutylpiperazin-1-yl)-2-oxoethyl]piperazin-1-yl}carbonyl)-1-propyl-1H-indole]	–	inhibition at 4 µM [3]: > 90%
O=C(CN1CCN(C(=O)c2ccccc2OC(F)(F)F)CC1)N1CCN(C2CCC2)CC1 [Compound 578, 1-cyclobutyl-4-({4-[2-(trifluoromethoxy)benzoyl]piperazin-1-yl}acetyl)piperazine]	> 90%	–
CSc1sc(C(=O)N2CCN(CC(=O)N3CCN(C4CCC4)CC3)CC2)c2c1C=CCC2 [Compound 625, 1-cyclobutyl-4-[(4-{[3-(methylthio)-6,7-dihydro-2-benzothien-1-yl]carbonyl}piperazin-1-yl)acetyl]piperazine]	> 90%	–
COc1cc(CC(=O)N2CCN(CC(=O)N3CCN(C4CCC4)CC3)CC2)cc(OC)c1OC [Compound 544, 1-cyclobutyl-4-({4-[(3,4,5-trimethoxyphenyl)acetyl]piperazin-1-yl}acetyl)piperazine]	–	inhibition at 4 µM [1]: > 90%
COc1ccc(/C=C/C(=O)N2CCN(CC(=O)N3CCN(C4CCC4)CC3)CC2)cc1OC [Compound 528, 1-cyclobutyl-4-({4-[(2E)-3-(3,4-dimethoxyphenyl)prop-2-enoyl]piperazin-1-yl}acetyl)piperazine]	–	inhibition at 4 µM [1]: > 90%
COc1ccc(Br)c(OC)c1C(=O)N1CCN(CC(=O)N2CCN(C3CCC3)CC2)CC1 [Compound 290, 1-(3-bromo-2,6-dimethoxybenzoyl)-4-[2-(4-cyclobutylpiperazin-1-yl)-2-oxoethyl]piperazine]	–	inhibition at 4 µM (assay described in Example 8, symbol + in column headed Ki of Table II): > 90%
COc1ccccc1C(=O)N1CCN(CC(=O)N2CCN(C3CCC3)CC2)CC1 [Compound 711, 1-cyclobutyl-4-{[4-(2-methoxybenzoyl)piperazin-1-yl]acetyl}piperazine]	> 90%	–
